Measurements taken from ChEMBL document CHEMBL3734700, “Design, synthesis and biological activity of 4-[(benzimidazol-1-yl)methyl]biphenyl-2-sulphonamides as dual angiotensin II and endothelin A receptor antagonists” (Medchemcomm, 2015).
The source made the active and inactive calls. The calls are words filed in the database; no cut-off is given here.

Experiments:
[1] = molecular target: T1, Type-1 angiotensin II receptor (Homo sapiens, UniProt P30556); assay: Displacement of 125I-labeled Sar1-Ile8-angiotensin II from human AT1 receptor incubated for 2 hrs by gamma counting analysis
T1 sequence (P30556 whole entry): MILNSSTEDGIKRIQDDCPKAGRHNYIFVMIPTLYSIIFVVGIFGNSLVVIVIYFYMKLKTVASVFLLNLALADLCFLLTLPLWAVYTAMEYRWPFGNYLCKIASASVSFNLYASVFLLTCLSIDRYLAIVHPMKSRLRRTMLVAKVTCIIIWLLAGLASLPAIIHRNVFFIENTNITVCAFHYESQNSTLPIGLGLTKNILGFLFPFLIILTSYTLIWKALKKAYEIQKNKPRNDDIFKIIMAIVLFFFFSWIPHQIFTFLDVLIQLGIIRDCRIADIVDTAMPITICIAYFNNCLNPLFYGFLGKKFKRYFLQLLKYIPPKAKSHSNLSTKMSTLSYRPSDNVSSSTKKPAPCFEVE

Endothelin-1 receptor = molecular target: T2, Endothelin-1 receptor (Homo sapiens, UniProt P25101); assay: Displacement of 125I-labeled endothelin 1 from human ETA receptor expressed in CHO-K1 cells incubated for 4 hrs by gamma counting analysis; type: cell-based
T2 sequence (P25101 whole entry): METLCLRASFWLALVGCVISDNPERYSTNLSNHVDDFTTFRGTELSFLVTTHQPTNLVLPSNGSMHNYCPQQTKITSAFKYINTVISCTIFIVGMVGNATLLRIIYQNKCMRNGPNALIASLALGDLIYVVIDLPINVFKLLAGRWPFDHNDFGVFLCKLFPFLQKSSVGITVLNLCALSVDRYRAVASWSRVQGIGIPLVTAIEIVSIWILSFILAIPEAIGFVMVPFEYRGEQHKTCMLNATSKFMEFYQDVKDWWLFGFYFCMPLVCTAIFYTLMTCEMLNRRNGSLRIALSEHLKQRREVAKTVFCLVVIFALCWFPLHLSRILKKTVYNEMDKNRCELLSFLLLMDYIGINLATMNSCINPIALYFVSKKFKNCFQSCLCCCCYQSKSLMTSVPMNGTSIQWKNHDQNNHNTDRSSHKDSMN

Rattus norvegicus = assay: Antihypertensive activity in spontaneously hypertensive rat assessed as reduction in blood pressure at 20 mg/kg, po by tail plethysmographic analysis; type: functional, organism-based

IC50 [1]	IC50 (Endothelin-1 receptor)	SMILES	Activity (Rattus norvegicus)
76 nM	200000 nM	CCCc1nc2c(C)cc(C(=O)NCCc3ccc(OC)cc3)cc2n1Cc1ccc(-c2ccccc2S(=O)(=O)Nc2onc(C)c2C)cc1	–
92 nM	55000 nM	CCCc1nc2c(C)cc(C(=O)NCCc3ccc(OC)c(OC)c3)cc2n1Cc1ccc(-c2ccccc2S(=O)(=O)Nc2onc(C)c2C)cc1	–
385 nM	140000 nM	CCCc1nc2c(C)cc(C(=O)NC(C)(C)C)cc2n1Cc1ccc(-c2ccccc2S(=O)(=O)Nc2onc(C)c2C)cc1	–
28 nM	10 nM	CCCc1nc2c(C)cc(C(=O)NCc3ccccc3)cc2n1Cc1ccc(-c2ccccc2S(=O)(=O)Nc2onc(C)c2C)cc1	Active
31 nM	1400 nM	CCCc1nc2c(C)cc(C(=O)NCCN3CCOCC3)cc2n1Cc1ccc(-c2ccccc2S(=O)(=O)Nc2onc(C)c2C)cc1	–
8 nM	956 nM	CCCc1nc2c(C)cc(C(=O)NCCc3ccccc3)cc2n1Cc1ccc(-c2ccccc2S(=O)(=O)Nc2onc(C)c2C)cc1	–
56 nM	28000 nM	CCCc1nc2c(C)cc(C(=O)NCc3ccc(OC)c(OC)c3)cc2n1Cc1ccc(-c2ccccc2S(=O)(=O)Nc2onc(C)c2C)cc1	–
47 nM	1800 nM	CCCc1nc2c(C)cc(C(=O)NCCN3CCN(C)CC3)cc2n1Cc1ccc(-c2ccccc2S(=O)(=O)Nc2onc(C)c2C)cc1	–
13 nM	24 nM	CCCc1cc(Cn2c(CC)nc3c(C)cc(C)nc32)ccc1OC(C(=O)NS(=O)(=O)c1ccc(C(C)C)cc1)c1ccc2c(c1)OCO2 (configuration not stated)	–
373 nM	35000 nM	CCCNC(=O)c1cc(C)c2nc(CCC)n(Cc3ccc(-c4ccccc4S(=O)(=O)Nc4onc(C)c4C)cc3)c2c1	–
16 nM	15 nM	CCCc1nc2c(n1Cc1ccc(-c3ccccc3S(=O)(=O)Nc3onc(C)c3C)c(C#N)c1)C(=O)CCCC2	–

More lines, now with the values behind:

SMILES	IC50 [1]	IC50 (Endothelin-1 receptor)	Activity (Rattus norvegicus)
CCCc1nc2c(C)cc(C(=O)NCCc3cccc(OC)c3)cc2n1Cc1ccc(-c2ccccc2S(=O)(=O)Nc2onc(C)c2C)cc1	42 nM	24000 nM	–
CCCc1nc2c(C)cc(C(=O)NCCN3CCCCC3)cc2n1Cc1ccc(-c2ccccc2S(=O)(=O)Nc2onc(C)c2C)cc1	94 nM	5800 nM	–
CCCc1nc2c(C)cc(C(=O)NCCc3ccccc3F)cc2n1Cc1ccc(-c2ccccc2S(=O)(=O)Nc2onc(C)c2C)cc1	160 nM	262 nM	–
CCCc1nc2c(C)cc(C(=O)NCc3ccccc3OC)cc2n1Cc1ccc(-c2ccccc2S(=O)(=O)Nc2onc(C)c2C)cc1	217 nM	310 nM	–
CCCc1nc2c(C)cc(C(=O)NCCc3ccc(F)cc3)cc2n1Cc1ccc(-c2ccccc2S(=O)(=O)Nc2onc(C)c2C)cc1	152 nM	56000 nM	–
CCCCC1=NC2(CCCC2)C(=O)N1Cc1ccc(-c2ccccc2-c2nnn[nH]2)cc1	–	–	Active
CCCc1nc2c(C)cc(C(=O)Nc3ccccc3)cc2n1Cc1ccc(-c2ccccc2S(=O)(=O)Nc2onc(C)c2C)cc1	201 nM	27000 nM	–
CCCc1nc2c(C)cc(C(=O)NCc3ccc(OC)cc3)cc2n1Cc1ccc(-c2ccccc2S(=O)(=O)Nc2onc(C)c2C)cc1	81 nM	388 nM	–
CCCCNC(=O)c1cc(C)c2nc(CCC)n(Cc3ccc(-c4ccccc4S(=O)(=O)Nc4onc(C)c4C)cc3)c2c1	465 nM	314 nM	–
CCCc1nc2c(C)cc(C(=O)NCCc3cc(OC)ccc3OC)cc2n1Cc1ccc(-c2ccccc2S(=O)(=O)Nc2onc(C)c2C)cc1	37 nM	3000 nM	–
CCCc1nc2c(C)cc(C(=O)Nc3ccccc3OC)cc2n1Cc1ccc(-c2ccccc2S(=O)(=O)Nc2onc(C)c2C)cc1	419 nM	137 nM	–
CCCc1nc2c(C)cc(C(=O)NC(C)C)cc2n1Cc1ccc(-c2ccccc2S(=O)(=O)Nc2onc(C)c2C)cc1	341 nM	277 nM	–
CCCc1nc2c(C)cc(C(=O)NCc3cccc(OC)c3)cc2n1Cc1ccc(-c2ccccc2S(=O)(=O)Nc2onc(C)c2C)cc1	50 nM	898 nM	–
CCCc1nc2c(C)cc(C(=O)NCCN3CCCC3)cc2n1Cc1ccc(-c2ccccc2S(=O)(=O)Nc2onc(C)c2C)cc1	95 nM	5500 nM	–
CCCCc1nn(-c2ccccc2Cl)c(=O)n1Cc1ccc(-c2ccccc2S(=O)(=O)Nc2onc(C)c2C)cc1	7 nM	11 nM	–
